Results taken from PubChem BioAssay (NCI).
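These data come from cells grown in 96-well plates and exposed to compound for 48 hours at five concentrations. Abbreviation: GI50, concentration required for 50% inhibition of growth. TGI: concentration producing complete growth inhibition.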

Legend:
Assay in all cases: NCI-60 cell line screen, 48 h
[1] = system: OVCAR-5 ovarian
[2] = system: HS 578T breast
[3] = system: SNB-19 CNS
[4] = system: 786-0 renal
[5] = system: HL-60(TB) leukemia
[6] = system: SNB-75 CNS
[7] = system: A549 NSCLC
[8] = system: SK-MEL-2 melanoma
[9] = system: IGROV1 ovarian
[10] = system: UACC-257 melanoma
[11] = system: UO-31 renal
[12] = system: DU-145 prostate
[13] = system: CAKI-1 renal
[14] = system: UACC-62 melanoma
[15] = system: COLO 205 colon
[16] = system: MOLT-4 leukemia
[17] = system: SF-268 CNS
[18] = system: T-47D breast
[19] = system: SF-295 CNS
[20] = system: M14 melanoma
[21] = system: SK-MEL-28 melanoma
[22] = system: NCI-H23 lung
[23] = system: SK-MEL-5 melanoma
[24] = system: OVCAR-3 ovarian
[25] = system: KM12 colon
[26] = system: HT29 colon
[27] = system: HCT-116 colon
[28] = system: LOX IMVI melanoma
[29] = system: MCF7 breast
[30] = system: ACHN renal
[31] = system: SW-620 colon
[32] = system: OVCAR-4 ovarian
[33] = system: NCI-H460 lung
[34] = system: HOP-62 NSCLC
[35] = system: K-562 leukemia
[36] = system: TK-10 renal
[37] = system: CCRF-CEM leukemia
[38] = system: U251 CNS
[39] = system: HCT-15 colon
[40] = system: PC-3 prostate
[41] = system: EKVX NSCLC
[42] = system: HCC-2998 colon
[43] = system: HOP-92 NSCLC
[44] = system: MDA-MB-231 breast
[45] = system: RPMI-8226 leukemia
[46] = system: SK-OV-3 ovarian
[47] = system: NCI/ADR-RES ovarian
[48] = system: A498 renal
[49] = system: SN12C renal
[50] = system: MDA-MB-435
[51] = system: SF-539 CNS
[52] = system: NCI-H522 lung
[53] = system: OVCAR-8 ovarian

CN(C)CCC=C1c2ccccc2C(C)(C)c2ccccc21
GI50 [1]: 15.9 µM | TGI [1]: 31.4 µM | GI50 [2]: 9.03 µM | TGI [2]: 29.8 µM | GI50 [3]: 15.2 µM | TGI [3]: 28.5 µM | GI50 [4]: 12.8 µM | TGI [4]: 27 µM | GI50 [5]: 12.4 µM | TGI [5]: 27.1 µM | GI50 [6]: 2.86 µM | TGI [6]: 17.6 µM | GI50 [7]: 15.8 µM | TGI [7]: 32 µM | GI50 [8]: 6.26 µM | TGI [8]: 22.1 µM | GI50 [9]: 15.9 µM | TGI [9]: 31.7 µM | GI50 [10]: 2.42 µM | TGI [10]: 6.34 µM | GI50 [11]: 4.8 µM | TGI [11]: 20.7 µM | GI50 [12]: 14.3 µM | TGI [12]: 27.3 µM | GI50 [13]: 8.56 µM | TGI [13]: 23.6 µM | GI50 [14]: 11.6 µM | TGI [14]: 27 µM | GI50 [15]: 3.82 µM | TGI [15]: 14.3 µM | GI50 [16]: 7.18 µM | TGI [16]: 23 µM | GI50 [17]: 14.7 µM | TGI [17]: 27.8 µM | GI50 [18]: 11.5 µM | TGI [18]: 27.4 µM | GI50 [19]: 3.92 µM | TGI [19]: 19.7 µM | GI50 [20]: 2.94 µM | TGI [20]: 9.78 µM | GI50 [21]: 2.05 µM | TGI [21]: 4.31 µM | GI50 [22]: 14 µM | TGI [22]: 28.9 µM | GI50 [23]: 1.9 µM | TGI [23]: 5.09 µM | GI50 [24]: 15.2 µM | TGI [24]: 28.5 µM | GI50 [25]: 14.8 µM | TGI [25]: 28.4 µM | GI50 [26]: 3.06 µM | TGI [26]: 13.6 µM | GI50 [27]: 10.3 µM | TGI [27]: 22.4 µM | GI50 [28]: 9.46 µM | TGI [28]: 22 µM | GI50 [29]: 10.2 µM | TGI [29]: 22.5 µM | GI50 [30]: 14.7 µM | TGI [30]: 27.9 µM | GI50 [31]: 13.3 µM | TGI [31]: 26.2 µM | GI50 [32]: 12.5 µM | TGI [32]: 26.6 µM | GI50 [33]: 9.23 µM | TGI [33]: 21.3 µM | GI50 [34]: 17.4 µM | TGI [34]: 33.5 µM | GI50 [35]: 3 µM | TGI [35]: 19 µM | GI50 [36]: 18.4 µM | TGI [36]: 37 µM | GI50 [37]: 9.84 µM | TGI [37]: 28.4 µM | GI50 [38]: 12.2 µM | TGI [38]: 26.1 µM | GI50 [39]: 12.3 µM | TGI [39]: 27.5 µM | GI50 [40]: 10.4 µM | TGI [40]: 24.3 µM | GI50 [41]: 14.4 µM | TGI [41]: 30 µM | GI50 [42]: 4.25 µM | TGI [42]: 15 µM | GI50 [43]: 1.88 µM | TGI [43]: 14.7 µM | GI50 [44]: 13.8 µM | TGI [44]: 28.8 µM | GI50 [45]: 2 µM | TGI [45]: 5.93 µM | GI50 [46]: 15.5 µM | TGI [46]: 28.8 µM | GI50 [47]: 17 µM | TGI [47]: 34.1 µM | GI50 [48]: 12.9 µM | TGI [48]: 26 µM | GI50 [49]: 15.6 µM | TGI [49]: 34 µM | GI50 [50]: 4.56 µM | TGI [50]: 19.5 µM | GI50 [51]: 10.4 µM | TGI [51]: 22.2 µM | GI50 [52]: 17.9 µM | TGI [52]: 37.1 µM | GI50 [53]: 18.6 µM | TGI [53]: 37.6 µM
